Data published in US12077503B2, “Substituted cyclic amides and their use as herbicides” (FMC CORPORATION, priority 2015, dated 2024).

Legend:
Type in all cases: in vivo
corn (Zea mays) [1] = test: Test G Post-Emergence Protocol; conditions: Zea mays, post-emergence, 312 h; for plant injury at 15.625 g/ha: 15.625 g ai/ha, evaluated after 13 days (100=total damage to plant; 0=no damage to plant), read-out: Corn damage rating; for plant injury at 62.5 g/ha: 62.5 g ai/ha, read-out: Corn damage rating (100=total damage to plant; 0=no damage to plant); for plant injury at 62.5 g/ha / plant injury at 250 g/ha: evaluated after 13 days; for plant injury at 250 g/ha: 250 g ai/ha, read-out: damage to plant, Corn (100=total damage to plant; 0=no damage to plant)
Summary of the method: (§1)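 Seedlings grown 8 days in soil in a glasshouse (24/16 °C day/night, 14 h light, 65% humidity) were sprayed post-emergence with compound in acetone/water 50:50 plus 0.5% Tween 20 at 15.625, 62.5 or 250 g/ha. Damage was scored after 13 days on a 0–100 scale (100 = total damage).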

[2] = system: redroot pigweed (Amaranthus retroflexus); test: Test G Post-Emergence Protocol; conditions: Amaranthus retroflexus, post-emergence, 312 h; for pest or weed control at 15.625 g/ha: 15.625 g ai/ha, evaluated after 13 days (100=total damage to plant; 0=no damage to plant), read-out: Pigweed, Redroot damage rating; for pest or weed control at 62.5 g/ha: 62.5 g ai/ha, read-out: Pigweed, Redroot damage rating (100=total damage to plant; 0=no damage to plant); for pest or weed control at 62.5 g/ha / pest or weed control at 250 g/ha: evaluated after 13 days; for pest or weed control at 250 g/ha: 250 g ai/ha, read-out: damage to plant, Pigweed, Redroot (100=total damage to plant; 0=no damage to plant)
Summary of the method: as §1

[3] = system: velvetleaf (Abutilon theophrasti); test: Test G Post-Emergence Protocol; conditions: Abutilon theophrasti, post-emergence, 312 h; for pest or weed control at 15.625 g/ha: 15.625 g ai/ha, evaluated after 13 days (100=total damage to plant; 0=no damage to plant), read-out: Velvetleaf damage rating; for pest or weed control at 62.5 g/ha: 62.5 g ai/ha, read-out: Velvetleaf damage rating (100=total damage to plant; 0=no damage to plant); for pest or weed control at 62.5 g/ha / pest or weed control at 250 g/ha: evaluated after 13 days; for pest or weed control at 250 g/ha: 250 g ai/ha, read-out: damage to plant, Velvetleaf (100=total damage to plant; 0=no damage to plant)
Summary of the method: as §1

[4] = system: ivy-leaved morning glory (Ipomoea hederacea); test: Test G Post-Emergence Protocol; conditions: Ipomoea, post-emergence, 312 h; for pest or weed control at 15.625 g/ha: 15.625 g ai/ha, evaluated after 13 days (100=total damage to plant; 0=no damage to plant), read-out: Morningglory, Ivy-leaved damage rating; for pest or weed control at 62.5 g/ha: 62.5 g ai/ha, read-out: Morningglory, Ivy-leaved damage rating (100=total damage to plant; 0=no damage to plant); for pest or weed control at 62.5 g/ha / pest or weed control at 250 g/ha: evaluated after 13 days; for pest or weed control at 250 g/ha: 250 g ai/ha, read-out: damage to plant, Morningglory, Ivy-leaved (100=total damage to plant; 0=no damage to plant)
Summary of the method: as §1

[5] = system: barnyardgrass (Echinochloa crus-galli); test: Test G Post-Emergence Protocol; conditions: Echinochloa crus-galli, post-emergence, 312 h; for pest or weed control at 15.625 g/ha: 15.625 g ai/ha, evaluated after 13 days (100=total damage to plant; 0=no damage to plant), read-out: Barnyardgrass damage rating; for pest or weed control at 62.5 g/ha: 62.5 g ai/ha, read-out: Barnyardgrass damage rating (100=total damage to plant; 0=no damage to plant); for pest or weed control at 62.5 g/ha / pest or weed control at 250 g/ha: evaluated after 13 days; for pest or weed control at 250 g/ha: 250 g ai/ha, read-out: damage to plant, Barnyardgrass (100=total damage to plant; 0=no damage to plant)
Summary of the method: as §1

[6] = system: giant foxtail (Setaria faberi); test: Test G Post-Emergence Protocol; conditions: Setaria faberi, post-emergence, 312 h; for pest or weed control at 15.625 g/ha: 15.625 g ai/ha, evaluated after 13 days (100=total damage to plant; 0=no damage to plant), read-out: Foxtail, Giant damage rating; for pest or weed control at 62.5 g/ha: 62.5 g ai/ha, read-out: Foxtail, Giant damage rating (100=total damage to plant; 0=no damage to plant); for pest or weed control at 62.5 g/ha / pest or weed control at 250 g/ha: evaluated after 13 days; for pest or weed control at 250 g/ha: 250 g ai/ha, read-out: damage to plant, Foxtail, Giant (100=total damage to plant; 0=no damage to plant)
Summary of the method: as §1

corn (Zea mays) [7] = test: Test G Pre-Emergence Protocol; conditions: Zea mays, pre-emergence, 312 h, evaluated after 13 days; for plant injury at 15.625 g/ha: 15.625 g ai/ha; for plant injury at 15.625 g/ha / plant injury at 250 g/ha: read-out: Corn damage rating (100=total damage to plant; 0=no damage to plant); for plant injury at 62.5 g/ha: 62.5 g ai/ha, 100=total damage to plant, 0=no damage to plant, read-out: plant damage rating, Corn; for plant injury at 250 g/ha: 250 g ai/ha
Summary of the method: (§2)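 One day after sowing, pots are treated with a spray of test compound formulated in acetone/water 50:50 plus 0.5% Tween 20, giving 15.625, 62.5 or 250 g/ha. Evaluation on a 0–100 damage scale follows 13 days of glasshouse growth.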

[8] = system: redroot pigweed (Amaranthus retroflexus); test: Test G Pre-Emergence Protocol; conditions: Amaranthus retroflexus, pre-emergence, 312 h, evaluated after 13 days; for pest or weed control at 15.625 g/ha: 15.625 g ai/ha; for pest or weed control at 15.625 g/ha / pest or weed control at 250 g/ha: read-out: Pigweed, Redroot damage rating (100=total damage to plant; 0=no damage to plant); for pest or weed control at 62.5 g/ha: 62.5 g ai/ha, 100=total damage to plant, 0=no damage to plant, read-out: plant damage rating, Pigweed, Redroot; for pest or weed control at 250 g/ha: 250 g ai/ha
Summary of the method: as §2

[9] = system: velvetleaf (Abutilon theophrasti); test: Test G Pre-Emergence Protocol; conditions: Abutilon theophrasti, pre-emergence, 312 h, evaluated after 13 days; for pest or weed control at 15.625 g/ha: 15.625 g ai/ha; for pest or weed control at 15.625 g/ha / pest or weed control at 250 g/ha: read-out: Velvetleaf damage rating (100=total damage to plant; 0=no damage to plant); for pest or weed control at 62.5 g/ha: 62.5 g ai/ha, 100=total damage to plant, 0=no damage to plant, read-out: plant damage rating, Velvetleaf; for pest or weed control at 250 g/ha: 250 g ai/ha
Summary of the method: as §2

[10] = system: ivy-leaved morning glory (Ipomoea hederacea); test: Test G Pre-Emergence Protocol; conditions: Ipomoea, pre-emergence, 312 h, evaluated after 13 days; for pest or weed control at 15.625 g/ha: 15.625 g ai/ha, read-out: Morning-glory, Ivy-leaved damage rating (100=total damage to plant; 0=no damage to plant); for pest or weed control at 62.5 g/ha: 62.5 g ai/ha, 100=total damage to plant, 0=no damage to plant, read-out: plant damage rating, Morningglory, Ivy-leaved; for pest or weed control at 250 g/ha: 250 g ai/ha, read-out: Morningglory, Ivy-leaved damage rating (100=total damage to plant; 0=no damage to plant)
Summary of the method: as §2

[11] = system: barnyardgrass (Echinochloa crus-galli); test: Test G Pre-Emergence Protocol; conditions: Echinochloa crus-galli, pre-emergence, 312 h, evaluated after 13 days; for pest or weed control at 15.625 g/ha: 15.625 g ai/ha, read-out: Barnyard grass damage rating (100=total damage to plant; 0=no damage to plant); for pest or weed control at 62.5 g/ha: 62.5 g ai/ha, 100=total damage to plant, 0=no damage to plant, read-out: plant damage rating, Barnyardgrass; for pest or weed control at 250 g/ha: 250 g ai/ha, read-out: Barnyardgrass damage rating (100=total damage to plant; 0=no damage to plant)
Summary of the method: as §2

[12] = system: giant foxtail (Setaria faberi); test: Test G Pre-Emergence Protocol; conditions: Setaria faberi, pre-emergence, 312 h, evaluated after 13 days; for pest or weed control at 15.625 g/ha: 15.625 g ai/ha; for pest or weed control at 15.625 g/ha / pest or weed control at 250 g/ha: read-out: Foxtail, Giant damage rating (100=total damage to plant; 0=no damage to plant); for pest or weed control at 62.5 g/ha: 62.5 g ai/ha, 100=total damage to plant, 0=no damage to plant, read-out: plant damage rating, Foxtail, Giant; for pest or weed control at 250 g/ha: 250 g ai/ha
Summary of the method: as §2

| SMILES | plant injury at 15.625 g/ha (corn (Zea mays) [1]) [%] | plant injury at 62.5 g/ha (corn (Zea mays) [1]) [%] | plant injury at 250 g/ha (corn (Zea mays) [1]) [%] | pest or weed control at 15.625 g/ha [2] [%] | pest or weed control at 62.5 g/ha [2] [%] | pest or weed control at 250 g/ha [2] [%] | pest or weed control at 15.625 g/ha [3] [%] | pest or weed control at 62.5 g/ha [3] [%] | pest or weed control at 250 g/ha [3] [%] | pest or weed control at 15.625 g/ha [4] [%] | pest or weed control at 62.5 g/ha [4] [%] | pest or weed control at 250 g/ha [4] [%] | pest or weed control at 15.625 g/ha [5] [%] | pest or weed control at 62.5 g/ha [5] [%] | pest or weed control at 250 g/ha [5] [%] | pest or weed control at 15.625 g/ha [6] [%] | pest or weed control at 62.5 g/ha [6] [%] | pest or weed control at 250 g/ha [6] [%] | plant injury at 15.625 g/ha (corn (Zea mays) [7]) [%] | plant injury at 62.5 g/ha (corn (Zea mays) [7]) [%] | other results |
| --- | --- | --- | --- | --- | --- | --- | --- | --- | --- | --- | --- | --- | --- | --- | --- | --- | --- | --- | --- | --- | --- |
| CN1C[C@H](c2ccc(C(F)(F)F)cc2)[C@@H](C(=O)Nc2ccc(F)c(Cl)c2)C1=O (racemic) [Compound 1434] | 10 | 0 | 10 | 0 | 0 | 20 | 0 | 0 | 10 | 0 | 0 | 0 | 0 | 0 | 20 | 0 | 0 | 30 | 0 | 0 | plant injury at 250 g/ha (corn (Zea mays) [7]): 0%; pest or weed control at 15.625 g/ha [8]: 0%; pest or weed control at 62.5 g/ha [8]: 0%; pest or weed control at 250 g/ha [8]: 0%; pest or weed control at 15.625 g/ha [9]: 0%; pest or weed control at 62.5 g/ha [9]: 0%; pest or weed control at 250 g/ha [9]: 0%; pest or weed control at 15.625 g/ha [10]: 0%; pest or weed control at 62.5 g/ha [10]: 0%; pest or weed control at 250 g/ha [10]: 0%; pest or weed control at 15.625 g/ha [11]: 0%; pest or weed control at 62.5 g/ha [11]: 0%; pest or weed control at 250 g/ha [11]: 20%; pest or weed control at 15.625 g/ha [12]: 0%; pest or weed control at 62.5 g/ha [12]: 20%; pest or weed control at 250 g/ha [12]: 50% |
| CN1C[C@H](c2ccc(C(F)(F)F)cc2)[C@@H](C(=O)Nc2ncc(Cl)cc2Cl)C1=O (racemic) [Compound 1435] | 0 | 0 | 10 | 0 | 30 | 30 | 0 | 0 | 0 | 0 | 0 | 0 | 0 | 0 | 0 | 0 | 0 | 0 | 0 | 0 | plant injury at 250 g/ha (corn (Zea mays) [7]): 0%; pest or weed control at 15.625 g/ha [8]: 0%; pest or weed control at 62.5 g/ha [8]: 0%; pest or weed control at 250 g/ha [8]: 0%; pest or weed control at 15.625 g/ha [9]: 0%; pest or weed control at 62.5 g/ha [9]: 0%; pest or weed control at 250 g/ha [9]: 0%; pest or weed control at 15.625 g/ha [10]: 0%; pest or weed control at 62.5 g/ha [10]: 0%; pest or weed control at 250 g/ha [10]: 0%; pest or weed control at 15.625 g/ha [11]: 0%; pest or weed control at 62.5 g/ha [11]: 0%; pest or weed control at 250 g/ha [11]: 0%; pest or weed control at 15.625 g/ha [12]: 0%; pest or weed control at 62.5 g/ha [12]: 0%; pest or weed control at 250 g/ha [12]: 0% |
| CN1C[C@H](c2ccc(C(F)(F)F)cc2)[C@@H](C(=O)Nc2nccc(C(F)(F)F)c2F)C1=O (racemic) [Compound 1436] | 0 | 0 | 0 | 0 | 0 | 0 | 0 | 0 | 0 | 0 | 0 | 0 | 0 | 0 | 0 | 0 | 0 | 0 | 0 | 0 | plant injury at 250 g/ha (corn (Zea mays) [7]): 0%; pest or weed control at 15.625 g/ha [8]: 0%; pest or weed control at 62.5 g/ha [8]: 0%; pest or weed control at 250 g/ha [8]: 0%; pest or weed control at 15.625 g/ha [9]: 0%; pest or weed control at 62.5 g/ha [9]: 0%; pest or weed control at 250 g/ha [9]: 0%; pest or weed control at 15.625 g/ha [10]: 0%; pest or weed control at 62.5 g/ha [10]: 0%; pest or weed control at 250 g/ha [10]: 0%; pest or weed control at 15.625 g/ha [11]: 0%; pest or weed control at 62.5 g/ha [11]: 0%; pest or weed control at 250 g/ha [11]: 0%; pest or weed control at 15.625 g/ha [12]: 0%; pest or weed control at 62.5 g/ha [12]: 0%; pest or weed control at 250 g/ha [12]: 0% |
